# Target: Muscarinic acetylcholine receptor M4 (Homo sapiens) (UniProt P08173)
# Test: potentiation of EC20 ACh response at hM4 – cell-based, human M4, calcium flux, Millipore GPCR Profiler, dose response (AID 449765)
# Conditions: M4-expressing cells, calcium flux fluorescence
# Sequence of Muscarinic acetylcholine receptor M4 (Homo sapiens) (P08173 whole entry, looked up): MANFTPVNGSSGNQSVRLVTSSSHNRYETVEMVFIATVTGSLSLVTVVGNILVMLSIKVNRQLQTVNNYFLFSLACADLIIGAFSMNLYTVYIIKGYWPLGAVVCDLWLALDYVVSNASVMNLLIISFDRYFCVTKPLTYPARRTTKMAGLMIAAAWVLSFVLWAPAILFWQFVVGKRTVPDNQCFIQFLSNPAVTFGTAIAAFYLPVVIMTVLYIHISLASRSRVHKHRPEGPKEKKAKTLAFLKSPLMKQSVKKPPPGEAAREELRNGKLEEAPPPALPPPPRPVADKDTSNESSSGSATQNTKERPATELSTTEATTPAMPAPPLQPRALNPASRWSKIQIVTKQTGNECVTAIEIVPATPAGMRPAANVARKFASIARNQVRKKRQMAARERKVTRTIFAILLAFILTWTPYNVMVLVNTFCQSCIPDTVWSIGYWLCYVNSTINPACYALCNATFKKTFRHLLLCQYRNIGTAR
row,Compound,EC50 [µM]
1,Cc1cc(OCc2ccncc2)nc2sc(C(=O)NCc3cccc(F)c3F)c(N)c12,0.0953
2,COc1ccc(CNC(=O)c2sc3nc(OCc4ccncc4)cc(C)c3c2N)cc1,0.1
3,Cc1cc(OCc2ccncc2)nc2sc(C(=O)NCc3cc(F)ccc3F)c(N)c12,0.183
4,Cc1cc(OCCN2CCOCC2)nc2sc(C(=O)NC(C)(C)C)c(N)c12,0.192

# — PubChem BioAssay AID449765 (Vanderbilt High Throughput Screening Facility, 2010)
